{"source": "patent US20160270410A1", "about": "“INSECTICIDAL COMPOSITIONS AND METHODS OF USING THE SAME” (Clarke Mosquito Control Products, Inc., priority 2011, published 2016)", "tested_on": "3rd instar Aedes aegypti", "assay": "Laboratory bioassay in larval trays, larvicide surface film, Aedes aegypti", "assay_type": "in vivo", "conditions": "components of Sample 42 tested neat, rate 663 μL, 21° C.", "experimental": "Laboratory Bioassay Method. All larvae were reared on a diet of ground TETRAMIN® fish food (Tetra, Blacksburg, Va.) in an insectary maintained at 30° C. and 45% relative humidity (RH). Mainly third instars of Aedes aegypti were used for the laboratory container experiments. Anopheles quadrimaculatus and Culex quinquefasciatus were also tested where indicated.\nLaboratory bioassays were conducted in […] plastic larval trays (laboratory containers). Each tray was filled with 27 liters of de-chlorinated water and received 50 healthy third instar larvae. The temperature of the water during most of the studies was 21° C. Additional testing was done at a water temperature of 15.6° C. and 28° C. Treatments were applied at a rate of 3 gal/acre or 663 μL/tray with an Eppendorf pipette. During the experimental period larvae were fed ground TETRAMIN® fish food (Tetra, Blacksburg, Va.) that was blended with water before introduction into the water of the larval tray to prevent flotation and thus interference with the surface film being tested.\nTrays were scored for mortality at 1, 2, 4, 24, 48, and 72 hours following treatment introduction. At each time period the numbers of live and dead larvae were counted. […] Each treatment in the study was replicated three times using separate trays for each replication. A 95% mortality rate was considered acceptable for a commercial product.", "data": [{"substance": "ethoxylated tridecyl alcohol", "values": [{"measurement": "% MORTALITY 24 HAT", "setting": "24 HAT", "result": 17, "unit": "%"}, {"measurement": "% MORTALITY 48 HAT", "setting": "48 HAT", "result": 20, "unit": "%"}, {"measurement": "% MORTALITY 72 HAT", "setting": "72 HAT", "result": 25, "unit": "%"}]}]}
